Patent US6737383B1, “Herbicidal oxadiazolidines” (priority 1999, dated 2004)

Key:
bedstraw = assay: Test B pre/postemergence bedstraw; format: in vivo, Galium aparine
How it was run: (§1)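 Herbicidal effect was estimated by eye on a ten-point control scale after plants spent twelve to sixteen days in a greenhouse following soil or foliar treatment. Foliar sprays targeted plants at one to four leaves; all doses were formulated in a non-phytotoxic solvent with surfactant.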

blackgrass = assay: Test B pre/postemergence blackgrass; format: in vivo, Alopecurus myosuroides
How it was run: as §1

surinam grass = assay: Test B pre/postemergence surinam grass; format: in vivo, Brachiaria decumbens
How it was run: as §1

cocklebur = assay: Test B pre/postemergence cocklebur; format: in vivo, Xanthium strumarium
How it was run: as §1

corn = assay: Test B pre/postemergence corn; format: in vivo, Zea mays
How it was run: as §1

crabgrass = assay: Test B pre/postemergence crabgrass; format: in vivo, Digitaria sanguinalis
How it was run: as §1

giant foxtail = assay: Test B pre/postemergence giant foxtail; format: in vivo, Setaria faberii
How it was run: as §1

morningglory = assay: Test B pre/postemergence morningglory; format: in vivo, Ipomoea hederacea
How it was run: as §1

pigweed = assay: Test B pre/postemergence pigweed; format: in vivo, Amaranthus retroflexus
How it was run: as §1

rape = assay: Test B pre/postemergence rape; format: in vivo, Brassica napus
How it was run: as §1

soybean = assay: Test B pre/postemergence soybean; format: in vivo, Glycine max
How it was run: as §1

sugar beet = assay: Test B pre/postemergence sugar beet; format: in vivo, Beta vulgaris
How it was run: as §1

velvetleaf = assay: Test B pre/postemergence velvetleaf; format: in vivo, Abutilon theophrasti
How it was run: as §1

wheat = assay: Test B pre/postemergence wheat; format: in vivo, Triticum aestivum
How it was run: as §1

wild oat = assay: Test B pre/postemergence wild oat; format: in vivo, Avena fatua
How it was run: as §1

purple nutsedge = assay: Test B pre/postemergence purple nutsedge; format: in vivo, Cyperus rotundus; conditions: for Plant response rating, Nutsedge: scale of 0 to 10 where 0 is no effect and 10 is complete control
How it was run: as §1

[1] = Postemergence, Rate 62 g/ha, scale of 0 to 10, 0 is no effect, 10 is complete control
[2] = Postemergence, Rate 500 g/ha, scale of 0 to 10 where 0 is no effect and 10 is complete control
[3] = Preemergence, Rate 62 g/ha, scale 0 to 10 (0 no effect, 10 complete control)
[4] = Preemergence, Rate 125 g/ha, scale 0 to 10, 0 is no effect, 10 is complete control
[5] = Preemergence, Rate 500 g/ha, scale of 0 to 10 where 0 is no effect and 10 is complete control
[6] = Postemergence, Rate 125 g/ha, scale 0 to 10, 0 is no effect, 10 is complete control
[7] = Rate 250 g/ha, Postemergence, scale of 0 to 10 where 0 is no effect and 10 is complete control

## COCCOCn1c(=O)on(C(=O)N(c2ccccc2)C(C)C)c1=O [Compound 564]
bedstraw; [1]
  Bedstraw plant response rating: 0
bedstraw; [2]
  Plant response rating, Bedstraw: 0
bedstraw; [3]
  Bedstraw plant response rating: 0
bedstraw; [4]
  Bedstraw plant response rating: 0
bedstraw; Preemergence, Rate 250 g/ha
  Bedstraw plant response rating (0 to 10 scale): 0
bedstraw; [5]
  Bedstraw plant response rating: 0
blackgrass; [1]
  Blackgrass plant response rating: 0
blackgrass; [6]
  Blackgrass plant response rating: 4
blackgrass; [2]
  Plant response rating, Blackgrass: 4
blackgrass; [3]
  Blackgrass plant response rating: 0
blackgrass; [4]
  Blackgrass plant response rating: 5
blackgrass; Preemergence, Rate 250 g/ha
  Blackgrass plant response rating (0 to 10 scale): 5
blackgrass; [5]
  Blackgrass plant response rating: 9
blackgrass; [7]
  Plant response rating, Blackgrass: 4
Surinam grass; [1]
  B. signalgrass plant response rating: 0
Surinam grass; [2]
  Plant response rating, B. signalgrass: 8
Surinam grass; [3]
  B. signalgrass plant response rating: 2
Surinam grass; [4]
  B. signalgrass plant response rating: 6
Surinam grass; Preemergence, Rate 250 g/ha
  B. signalgrass plant response rating (0 to 10 scale, 0 is no effect, 10 is complete control): 6
Surinam grass; [5]
  B. signalgrass plant response rating: 7
Surinam grass; [7]
  Plant response rating, B. signalgrass: 3
cocklebur; [1]
  Cocklebur plant response rating: 0
cocklebur; [6]
  Cocklebur plant response rating: 0
cocklebur; [2]
  Plant response rating, Cocklebur: 2
cocklebur; [3]
  Cocklebur plant response rating: 0
cocklebur; [4]
  Cocklebur plant response rating: 0
cocklebur; Preemergence, Rate 250 g/ha
  Cocklebur plant response rating (0 to 10 scale): 0
cocklebur; [5]
  Cocklebur plant response rating: 0
cocklebur; [7]
  Plant response rating, Cocklebur: 0
corn; [1]
  Corn plant response rating: 0
corn; [6]
  Corn plant response rating: 0
corn; [2]
  Plant response rating, Corn: 6
corn; [3]
  Corn plant response rating: 2
corn; [4]
  Corn plant response rating: 4
corn; Preemergence, Rate 250 g/ha
  Corn plant response rating (0 to 10 scale): 4
corn; [5]
  Corn plant response rating: 9
corn; [7]
  Plant response rating, Corn: 0
crabgrass; [1]
  Crabgrass plant response rating: 2
crabgrass; [6]
  Crabgrass plant response rating: 3
crabgrass; [2]
  Plant response rating, Crabgrass: 9
crabgrass; [3]
  Crabgrass plant response rating: 7
crabgrass; [4]
  Crabgrass plant response rating: 8
crabgrass; Preemergence, Rate 250 g/ha
  Crabgrass plant response rating (0 to 10 scale): 9
crabgrass; [5]
  Crabgrass plant response rating: 9
crabgrass; [7]
  Plant response rating, Crabgrass: 8
Giant foxtail; [1]
  Giant foxtail plant response rating: 2
Giant foxtail; [6]
  Giant foxtail plant response rating: 3
Giant foxtail; [2]
  Plant response rating, Giant foxtail: 9
Giant foxtail; [3]
  Giant foxtail plant response rating: 9
Giant foxtail; [4]
  Giant foxtail plant response rating: 9
Giant foxtail; Preemergence, Rate 250 g/ha
  Giant foxtail plant response rating (0 to 10 scale): 9
Giant foxtail; [5]
  Giant foxtail plant response rating: 9
Giant foxtail; [7]
  Plant response rating, Giant foxtail: 7
morningglory; [1]
  Morningglory plant response rating: 5
morningglory; [6]
  Morningglory plant response rating: 7
morningglory; [2]
  Plant response rating, Morningglory: 10
morningglory; [3]
  Morningglory plant response rating: 0
morningglory; [4]
  Morningglory plant response rating: 2
morningglory; Preemergence, Rate 250 g/ha
  Morningglory plant response rating (0 to 10 scale): 2
morningglory; [5]
  Morningglory plant response rating: 4
morningglory; [7]
  Plant response rating, Morningglory: 10
pigweed; [1]
  Redroot pigweed plant response rating: 3
pigweed; [2]
  Plant response rating, Redroot pigweed: 3
pigweed; [3]
  Redroot pigweed plant response rating: 0
pigweed; [4]
  Redroot pigweed plant response rating: 0
pigweed; Preemergence, Rate 250 g/ha
  Redroot pigweed plant response rating (0 to 10 scale): 3
pigweed; [5]
  Redroot pigweed plant response rating: 3
pigweed; [7]
  Plant response rating, Redroot pigweed: 3
rape; [1]
  Rape plant response rating: 0
rape; [6]
  Rape plant response rating: 0
rape; [2]
  Plant response rating, Rape: 2
rape; [3]
  Rape plant response rating: 0
rape; [4]
  Rape plant response rating: 0
rape; Preemergence, Rate 250 g/ha
  Rape plant response rating (0 to 10 scale): 0
rape; [5]
  Rape plant response rating: 3
rape; [7]
  Plant response rating, Rape: 2
soybean; [1]
  Soybean plant response rating: 0
soybean; [2]
  Plant response rating, Soybean: 5
soybean; [3]
  Soybean plant response rating: 0
soybean; [4]
  Soybean plant response rating: 0
soybean; Preemergence, Rate 250 g/ha
  Soybean plant response rating (0 to 10 scale): 4
soybean; [5]
  Soybean plant response rating: 8
soybean; [7]
  Plant response rating, Soybean: 5
Sugar beet; [1]
  Sugarbeets plant response rating: 0
Sugar beet; [2]
  Plant response rating, Sugarbeets: 2
Sugar beet; [3]
  Sugarbeets plant response rating: 2
Sugar beet; [4]
  Sugarbeets plant response rating: 2
Sugar beet; Preemergence, Rate 250 g/ha
  Sugarbeets plant response rating (0 to 10 scale): 3
Sugar beet; [5]
  Sugarbeets plant response rating: 3
Sugar beet; [7]
  Plant response rating, Sugarbeets: 2
velvetleaf; [1]
  Velvetleaf plant response rating: 0
velvetleaf; [2]
  Plant response rating, Velvetleaf: 3
velvetleaf; [3]
  Velvetleaf plant response rating: 0
velvetleaf; [4]
  Velvetleaf plant response rating: 2
velvetleaf; Preemergence, Rate 250 g/ha
  Velvetleaf plant response rating (0 to 10 scale): 6
velvetleaf; [5]
  Velvetleaf plant response rating: 8
velvetleaf; [7]
  Plant response rating, Velvetleaf: 2
wheat; [1]
  Wheat plant response rating: 0
wheat; [2]
  Plant response rating, Wheat: 2
wheat; [3]
  Wheat plant response rating: 0
wheat; [4]
  Wheat plant response rating: 6
wheat; Preemergence, Rate 250 g/ha
  Wheat plant response rating (0 to 10 scale): 7
wheat; [5]
  Wheat plant response rating: 7
Wild oat; [1]
  Wild oats plant response rating: 0
Wild oat; [2]
  Plant response rating, Wild oats: 2
Wild oat; [3]
  Wild oats plant response rating: 0
Wild oat; [4]
  Wild oats plant response rating: 0
Wild oat; Preemergence, Rate 250 g/ha
  Wild oats plant response rating (0 to 10 scale): 4
Wild oat; [5]
  Wild oats plant response rating: 7
Purple nutsedge; [1]
  Nutsedge plant response rating: 0
Purple nutsedge; Postemergence, Rate 500 g/ha
  Plant response rating, Nutsedge: 0
Purple nutsedge; [3]
  Nutsedge plant response rating: 0
Purple nutsedge; [4]
  Nutsedge plant response rating: 0
Purple nutsedge; Rate 250 g/ha, Postemergence
  Plant response rating, Nutsedge: 0
